Patent publication US20220002267A1, “TYROSINE KINASE 2 INHIBITORS, PREPARATION METHODS AND MEDICINAL USES THEREOF” (Eternity Bioscience Inc., priority 2020, published 2022)

Assays:
Tyk2 JH2 Pseudokinase = target: T1, Tyk2 JH2 Pseudokinase (Homo sapiens, UniProt P29597); experiment: KdELECT Competition Binding Assay; settings: 11-point 3-fold dilution series; performed by Eurofins DiscoverX
T1 construct: purchased Eurofins DiscoverX Corporation (CRO); host or cells: E. coli BL21-derived host (T7 phage) or HEK-293 cells
T1 sequence (P29597 589-875 limits assumed): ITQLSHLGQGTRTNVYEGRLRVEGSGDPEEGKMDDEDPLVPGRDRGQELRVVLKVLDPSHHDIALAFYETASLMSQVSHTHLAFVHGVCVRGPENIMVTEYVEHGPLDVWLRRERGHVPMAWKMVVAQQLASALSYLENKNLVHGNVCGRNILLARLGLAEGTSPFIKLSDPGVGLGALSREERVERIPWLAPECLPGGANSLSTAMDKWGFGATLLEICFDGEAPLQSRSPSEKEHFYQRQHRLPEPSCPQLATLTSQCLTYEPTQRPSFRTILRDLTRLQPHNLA
Procedure: The KdELECT Competition Binding Assay is performed by a CRO, Eurofins DiscoverX Corporation following the established standard protocol (DiscoverX, San Diego, Calif.). Briefly, Kinase-tagged T7 phage strains were prepared in an E. coli host derived from the BL21 strain. E. coli were grown to log-phase and infected with T7 phage and incubated with shaking at 32° C. until lysis. The lysates were centrifuged and filtered to remove cell debris. The remaining kinases were produced in HEK-293 cells and subsequently tagged with DNA for qPCR detection. Streptavidin-coated magnetic beads were treated with biotinylated small molecule ligands for 30 minutes at room temperature to generate affinity resins for kinase assays. The liganded beads were blocked with excess biotin and washed with blocking buffer (SeaBlock (Pierce), 1% BSA, 0.05% Tween 20, 1 mM DTT) to remove unbound ligand and to reduce nonspecific binding. Binding reactions were assembled by combining kinases, liganded affinity beads, and test compounds in 1× binding buffer (20% SeaBlock, 0.17×PBS, 0.05% Tween 20, 6 mM DTT). Test compounds were prepared as 111-fold stocks in 100% DMSO. Kds were determined using an 11-point 3-fold compound dilution series with three DMSO control points. All compounds for Kd measurements are distributed by acoustic transfer (non-contact dispensing) in 100% DMSO. The compounds were then diluted directly into the assays such that the final concentration of DMSO was 0.9%. All reactions performed in polypropylene 384-well plate. Each was a final volume of 0.02 mL. The assay plates were incubated at room temperature with shaking for 1 hour and the affinity beads were washed with wash buffer (1×PBS, 0.05% Tween 20). The beads were then re-suspended in elution buffer (1×PBS, 0.05% Tween 20, 0.5 μM non-biotinylated affinity ligand) and incubated at room temperature with shaking for 30 minutes. The kinase concentration in the eluates was measured by quantitative PCR.
Compound Handling: An 11-point 3-fold serial dilution of each test compound was prepared in 100% DMSO at 100-fold final test concentration and subsequently diluted to 1-fold in the assay (final DMSO concentration=1%). Most Kds were determined using a compound top concentration=30,000 nM. If the initial Kd determined was <0.5 nM (the lowest concentration tested), the measurement was repeated with a serial dilution starting at a lower top concentration.

[1] = system: Tyk2-mediated, IL23-induced STAT3 phosphorylation in human Kit225 T cell line; experiment: IL-23_Kit225 T Cell Assay (phosphorylated-STAT3, AlphaLISA); format: cell-based; settings: Kit225 cells, compound 1 hour, human recombinant IL-23 20 minutes, pSTAT3
Procedure: (§1) Kit225 cells (licensed from Professor Toshiyuki Hori, Ritsumeikan University, Japan) were seeded in 384-well plate at a density of 1×10^5 cells/well in 4 μL Hank's Balanced Salt Solution (HBSS, Gibco), and incubated for 2 hours in a humidified, 5% CO2 cell culture incubator at 37° C. The cells were treated with serial diluted compounds for 1 hour and stimulated with human recombinant IL-23 (R&D Systems) for 20 minutes. The treated cells were then lysed and cellular phosphorylated-STAT3 levels were measured by AlphaLISA (PerkinElmer) according to the manufacture's instructions. Inhibition data were calculated by comparison to vehicle control wells for 0% inhibition and non-stimulated control wells for 100% inhibition. Dose response curves were then generated to determine the concentration required to suppress 50% of cellular response (IC50) as derived by non-linear regression analysis using GraphPad Prism.

[2] = system: Tyk2-mediated, IFNα-induced STAT1 phosphorylation in human Kit225 T cell line; experiment: IFNα_Kit225 T Cell Assay (phosphorylated-STAT1, AlphaLISA); format: cell-based; settings: Kit225 cells, compound 1 hour, human recombinant IFNα 20 minutes, pSTAT1; read-out: IFN-α Kit225 (IC50)
Procedure: as §1, with “cells” for “cells (licensed from Professor Toshiyuki Hori, Ritsumeikan University, Japan)”, “0.5×10^5” for “1×10^5”, “HBSS,” for “Hank's Balanced Salt Solution (HBSS, Gibco),”, “IFNα (Biolegend)” for “IL-23 (R&D Systems)”, “phosphorylated-STAT1” for “phosphorylated-STAT3”

[3] = system: IL-12/IL-23 and Type I IFN pathways; settings: Tokarski et al. 2015; cited from earlier work
[4] = system: experimental autoimmune disease models (psoriasis, SLE, and IBD); settings: cited from earlier work

Compound | Kd (Tyk2 JH2 Pseudokinase) [nM] | IC50 [1] [nM] | IC50 [2] [nM] | block of IL-12/IL-23 and Type I IFN pathways [3] | in vivo efficacy in experimental autoimmune disease models [4]
CNC(=O)c1nnc(Nc2ccc(N3CC(F)(F)C3)cn2)cc1Nc1cccc(-c2ncn(C)n2)c1OC [Example A2, 6-((5-(3,3-difluoroazetidin-1-yl)pyridin-2-yl)amino)-4-((2-methoxy-3-(1-methyl-1H-1,2,4-triazol-3-yl)phenyl)amino)-N-methylpyridazine-3-carboxamide] | 0.0063 | 31 | 25 | – | –
BMS986165 | – | – | – | effectively block | substantial in vivo efficacy

Further compounds by falling Kd (Tyk2 JH2 Pseudokinase), results first:

Kd (Tyk2 JH2 Pseudokinase) [nM] | IC50 [1] [nM] | IC50 [2] [nM] | Compound | block of IL-12/IL-23 and Type I IFN pathways [3] | in vivo efficacy in experimental autoimmune disease models [4]
0.067 | 6.7 | 11 | CNC(=O)c1nnc(Nc2ccc(N3CCC3)cn2)cc1Nc1cccc(-c2ncn(C)n2)c1OC [Example A1, 6-((5-(azetidin-1-yl)pyridin-2-yl)amino)-4-((2-methoxy-3-(1-methyl-1H-1,2,4-triazol-3-yl)phenyl)amino)-N-methylpyridazine-3-carboxamide] | – | –
0.011 | 15 | 6 | CNC(=O)c1nnc(Nc2cccc(N3CCC3)n2)cc1Nc1cccc(-c2ncn(C)n2)c1OC [Example A3, 6-((6-(azetidin-1-yl)pyridin-2-yl)amino)-4-((2-methoxy-3-(1-methyl-1H-1,2,4-triazol-3-yl)phenyl)amino)-N-methylpyridazine-3-carboxamide] | – | –
0.0052 | 5.9 | 83 | [2H]C([2H])([2H])NC(=O)c1nnc(Nc2ccc(N3CC(OC)C3)cn2)cc1Nc1cccc(-c2ncn(C)n2)c1OC [Example A4, 4-((2-methoxy-3-(1-methyl-1H-1,2,4-triazol-3-yl)phenyl)amino)-6-((5-(3-methoxyazetidin-1-yl)pyridin-2-yl)amino)-N-(methyl-d3)pyridazine-3-carboxamide] | – | –
0.0043 | 38 | 230 | [2H]C([2H])([2H])NC(=O)c1nnc(Nc2ccc(C3(O)COC3)cn2)cc1Nc1cccc(-c2ncn(C)n2)c1OC [Example A5, 6-((5-(3-hydroxyoxetan-3-yl)pyridin-2-yl)amino)-4-((2-methoxy-3-(1-methyl-1H-1,2,4-triazol-3-yl)phenyl)amino)-N-(methyl-d3)pyridazine-3-carboxamide] | – | –
